Laboratory results published in patent publication US6673812B1, “Preventives/remedies for glaucoma” (Senju Pharmaceutical Co., Ltd., priority 1998, dated 2004).

How the values were obtained:
Japanese white rabbits [1] = assay: Ophthalmic disorder caused by 8-time-a-day instillation to white rabbits: observation of corneal staining spot; assay type: in vivo, rabbit; details: after 8th administration
Procedure: The test drugs, Compound A and Compound C, were each dissolved in the following base at a concentration of 0.125, 0.25, 0.5 and 1.0% and adjusted to pH 7 for use in this experiment. Japanese white rabbits (body weight about 2 kg) purchased from Japan Laboratory Animals, INC. were used. These animals were bred in a breeding chamber set to temperature 23±3° C., humidity 55±10% and fed on limited amount of 100 g a day of a solid feed (Labo R Stock, Nihon-Nosan Kogyo K.K.). They were allowed free access to tap water. Instillation: Using a micropipet, each test drug (100 μl) was instilled into the right eye of each animal 8 times at one hour intervals. Into the left eye was instilled a base in the same manner. Observation: anterior segment of the eye was macroscopically observed before instillation and 30 min after 2nd, 4th, 6th and 8th administrations, according to the macroscopic criteria for ocular lesions as shown in Table 1 (Naruyuki Fukui, […] no Rinshou 4, 277-289, 1970). In addition, corneal staining spot was observed before instillation and after 8th administration.

Japanese white rabbits [2] = assay: Effect on blood flow of normal optic disc of white rabbits; assay type: in vivo, rabbit; details: 0.1% eye drop
Procedure: In this experiment, 0.1% eye drop containing Compound A (prepared in Example 2) and 0.1% eye drop containing Compound C (prepared in Example 5) were used.
Japanese white rabbits (body weight about 2 kg) purchased from Japan Laboratory Animals, INC. were used. These animals were bred in a breeding chamber set to temperature 23±3° C., humidity 55±10% and fed on limited amount of 100 g a day of a solid feed (Labo R Stock, Nihon-Nosan Kogyo K.K.). They were allowed free access to tap water. In the same manner as in Example 4, each test drug was administered. Using laser speckle microcirculation analyzer, the blood flow of optic disc was measured at 30, 60, 90, 120, 150 and 180 min after instillation and thereafter at one hour intervals till 300 min after the instillation.

Japanese white rabbits [3] = assay: Effect on normal intraocular pressure of white rabbits; assay type: in vivo, rabbit; details: 20 μl eye drop, 0.1% or 0.03%
From the text: In this experiment, 0.1% eye drop and 0.03% eye drop containing Compound A (each prepared in Example 2 and Example 3), 0.03% eye drop containing Compound B (prepared in Example 4), 0.1% eye drop and 0.03% eye drop containing Compound C (each prepared in Example 5 and Example 6) and 0.03% eye drop containing Compound D (prepared in Example 7) were used.
Japanese white rabbits (body weight about 2 kg) purchased from Japan Laboratory Animals, INC. were used. These animals were bred in a breeding chamber set to temperature 23±3° C., humidity 55±10% and fed on limited amount of 100 g a day of a solid feed (Labo R Stock, Nihon-Nosan Kogyo K.K.). They were allowed free access to tap water. The rabbits were placed in a holding box for 5 hr a day for acclimation from 2 days prior to the test. […] After measurement of the initial value of the intraocular pressure, various eye drops (20 μl) were instilled into one eye, and a base, which was one of various eye drops except the test drug, was instilled into the other eye in the same manner and taken as the control eye.
The intraocular pressure was measured with time at 30, 60, 90, 120, 150 and 180 min after instillation and thereafter at one hour intervals until the intraocular pressure returned to the initial value, and the duration of the effect was examined.

[4] = test system: extracted ciliary muscle of white rabbit; assay: Effect on carbachol contraction of extracted ciliary muscle of white rabbit (Magnus bath); assay type: cell-based
Procedure: Male Japanese white rabbits (body weight about 2 kg) were euthanized by intravenous administration of an excess pentobarbital sodium. The eyeball was enucleated immediately thereafter and preserved in a Krebs solution (NaCl:112 mM, KC1:5.9 mM, CaCl2 2H2O:2.0 mM, MgCl2 6H2O:1.2 mM, NaH2PO4 2H2O:1.2 mM, NaHCO3:25 mM, Glucose:11.5 mM). The ciliary body separated from the eyeball was hung in a Magnus bath filled with the Krebs solution and equilibrated under a 20-30 mg resting tension. The changes in the tension of the preparation was measured with a transducer and recorded on a pen recorder via an amplifier. As the contraction drug, carbachol was used, and the inhibitory action on the dose dependent response of phasic contraction was studied. The test drug was (+)-trans-4-(1-aminoethyl)-1-(4-pyridylcarbamoyl)cyclohexane 2HCl 1H2O (Compound A), which was added to the Magnus bath 5 min before addition of carbachol.

C[C@@H](N)c1ccc(C(=O)Nc2ccncc2)cc1.Cl.Cl [Compound C, (R)-(+)-N-(4-pyridyl)-4-(1-aminoethyl)benzamide 2HCl]
observation of corneal staining spot (Japanese white rabbits [1]; 0.125% instillation): did not cause particular abnormality
observation of corneal staining spot (Japanese white rabbits [1]; 0.25% instillation, corneal epithelium): abnormality in two eyes
observation of corneal staining spot (Japanese white rabbits [1]; 0.5% instillation, corneal epithelium): abnormality in all eyes
observation of corneal staining spot (Japanese white rabbits [1]; 1.0% instillation, corneal epithelium): abnormality in all eyes

CC(N)[C@H]1CC[C@H](C(=O)Nc2ccncc2)CC1.Cl.Cl.O (single isomer, unassigned; (+)) [Compound A, (+)-trans-4-(1-Aminoethyl)-1-(4-pyridylcarbamoyl)cyclohexane 2HCl 1H2O]
duration of optic disc blood flow increasing effect (Japanese white rabbits [2]): more long-lasting
observation of corneal staining spot (Japanese white rabbits [1]; any concentration (0.125, 0.25, 0.5 and 1.0%)): did not lead to abnormalities
character (onset, duration) of intraocular pressure lowering effect (Japanese white rabbits [3]): intraocular pressure lowering effect in early stages after instillation
type of antagonism against carbachol contraction ([4]; 10^−6-3×10^−4 M carbachol): non-competitive antagonism
IC50 ([4]; ciliary muscle, added 5 min before carbachol, read-out: IC50 against carbachol contraction): 2800 nM
